Literature values in patent US20180271827A1, “CANNABINOID COMPOSITIONS AND METHODS OF MAKING” (Pasenture, Inc., priority 2015, published 2018).
“Also recorded” adds a separate entry of the source.

Settings: Table A, representative terpenes; properties or predicted properties

SMILES | Properties
CC1=CCC2CC1C2(C)C (stereo not drawn) [a-pinene] | Antiinflammatory, Bronchodilator, Stimulant,; also recorded: Antibiotic, Antineoplastic, AChE inhibitor
Cc1ccc(C(C)C)cc1 [p-cymene] | Antibiotic, Anticandidal, AChE inhibitor
C=CC(C)(O)CCC=C(C)C (stereo not drawn) [linalool] | Sedative, Antidepressant, Anxiolytic, Immune; also recorded: potentiator
C=C(C)[C@H]1CC=C(C)CC1 [d-limonene] | Antidepressant, Antimutagenic
C=CC(=C)CCC=C(C)C [ß-myrcene] | Analgesic. Antiinflammatory, Antibiotic,; also recorded: Antimutagenic
CC1=CCC(O)(C(C)C)CC1 (stereo not drawn) [terpineol-4-ol] | AChE inhibitor, Antibiotic
C=C1CC/C=C(/C)CC[C@@H]2[C@@H]1CC2(C)C [ß-caryophyllene] | Antiinflammatory, Cytoprotective (gastric mucosa),; also recorded: Antimalarial
CC1=CC[C@@H](C(C)(C)O)CC1 [a-terpineol] | Sedative, Antibiotic, AChE inhibitor, Antioxidant,; also recorded: Antimalarial
CC12CCC(CC1)C(C)(C)O2 [1,8-cineole (eucalyptol), 1,8-cineole] | AChE inhibitor, Increases cerebral, blood flow,; also recorded: Stimulant, Antibiotic, Antiviral, Antiinflammatory,; also recorded: Antinociceptive
CC(C)=C1CC[C@@H](C)CC1=O [pulegone] | Antipyretic

Same assay, conditions: Table B, representative cannabinoids; properties or predicted properties

SMILES | Properties
CCCCCc1cc(O)c(C/C=C(\C)CCC=C(C)C)c(O)c1 [cannabigerol (CBG), cannabigerol] | Antiinflammatory, Antibiotic,; also recorded: Antifungal
CCCc1cc(O)c2c(c1)OC(C)(C)[C@@H]1CCC(C)=C[C@@H]21 [tetrahydrocannabivarin (THCV), tetrahydrocannabivarin] | Analgesic, Euphoriant
CCCCCc1cc(O)c2c(c1)OC(C)(CCC=C(C)C)C=C2 (stereo not drawn) [cannabichromene (CBC), cannabichromene] | Antiinflammatory, Antibiotic,; also recorded: Antifungal
CCCCCc1cc(O)c2c(c1)OC(C)(C)[C@@H]1CCC(C)=C[C@@H]21 [9-tetrahydrocannabinol (THC), 9-tetrahydrocannabinol, reference compound] | Euphoriant, Analgesic,; also recorded: Antiinflammatory, Antioxidant,; also recorded: Antiemetic
CCCCCc1cc(O)c2c(c1)OC(C)(C)c1ccc(C)cc1-2 [Cannabinol (CBN), Cannabinol] | Oxidation, breakdown, product,; also recorded: Sedative, Antibiotic
C=C(C)[C@@H]1CCC(C)=C[C@H]1c1c(O)cc(CCCCC)cc1O [cannabidiol (CBD), cannabidiol, reference compound] | Antispasmodic; also recorded: Anxiolytic, Analgesic, Antipsychotic,; also recorded: Antiinflammatory, Antioxidant,
CCCCCc1cc(O)c2c(c1)OC(C)(C)[C@@H]1CC=C(C)C[C@@H]21 [?-8-tetrahydrocannabinol (?-8-THC), ?-8-tetrahydrocannabinol] | Resembles ?-9-THC, Less psychoactive,; also recorded: More stable Antiemetic

Same assay, conditions: Table C, flavonoid and phytosterol components derived from cannabis plants; properties or predicted properties

SMILES | Properties
CC[C@H](CC[C@@H](C)[C@H]1CC[C@H]2[C@@H]3CC=C4C[C@@H](O)CC[C@]4(C)[C@H]3CC[C@]12C)C(C)C [ß-sitosterol] | Antiinflammatory, 5-a-reductase, inhibitor
COc1cc(-c2cc(=O)c3c(O)c(C/C=C(\C)CCC=C(C)C)c(O)cc3o2)ccc1O [cannflavin A] | COX inhibitor, LO inhibitor
O=c1c(O)c(-c2ccc(O)c(O)c2)oc2cc(O)cc(O)c12 [quercetin] | Antioxidant, Antimutagenic, Antiviral,; also recorded: Antineoplastic
O=c1cc(-c2ccc(O)cc2)oc2cc(O)cc(O)c12 [apigenin] | Anxiolytic, Antiinflammatory, Estrogenic
